Data: patent US20250263390A1, “NOVEL SUBSTITUTED 6,7-DIHYDRO-5H-BENZO[7]ANNULENE COMPOUNDS AND THEIR DERIVATIVES, PROCESSES FOR THEIR PREPARATION AND THERAPEUTIC USES THEREOF” (SANOFI, priority 2022, published 2025)

These molecules were tested against T1, ERα (Homo sapiens, UniProt P03372) (assay: Estrogen receptor degradation activity: breast cancer cell ERα in cell western assay). Settings: MCF7 cells, 4 hours, relative to fulvestrant 0.1 μM positive control.
T1 construct: host or cells: MCF7
T1 sequence (P03372 1-595): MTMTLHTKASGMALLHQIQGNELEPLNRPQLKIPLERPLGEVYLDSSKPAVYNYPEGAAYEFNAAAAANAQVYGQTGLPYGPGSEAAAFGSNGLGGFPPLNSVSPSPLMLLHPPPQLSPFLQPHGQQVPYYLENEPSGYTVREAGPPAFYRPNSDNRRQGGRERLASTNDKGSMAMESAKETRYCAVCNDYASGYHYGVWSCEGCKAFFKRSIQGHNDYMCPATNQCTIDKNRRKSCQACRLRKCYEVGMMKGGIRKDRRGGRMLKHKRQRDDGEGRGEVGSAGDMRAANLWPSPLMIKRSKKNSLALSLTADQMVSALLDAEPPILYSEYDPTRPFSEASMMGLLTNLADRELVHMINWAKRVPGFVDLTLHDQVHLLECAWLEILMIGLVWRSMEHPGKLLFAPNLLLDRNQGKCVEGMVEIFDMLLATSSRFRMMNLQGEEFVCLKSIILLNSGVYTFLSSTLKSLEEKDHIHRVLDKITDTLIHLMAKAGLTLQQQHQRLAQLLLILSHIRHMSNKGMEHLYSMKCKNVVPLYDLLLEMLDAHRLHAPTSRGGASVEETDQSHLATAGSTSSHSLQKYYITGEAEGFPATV
Format: cell-based
Description: Test: Estrogen Receptor Degradation Activity Said test involves measuring the in vitro degradation activity of the compounds of the Table 1a. The measurements of the degradation activities were made using a breast cancer cell ERα in cell western assay as described hereunder. MCF7 cells (ATCC) were seeded in 384 wells microplate (collagen coated) at a concentration of 10000 cells/30 μL per well in red phenol free MEM alpha medium (invitrogen) containing 5% charcoal dextran striped FBS. The following day, 9 points serial 1:5 dilution of each compound was added to the cells in 2.5p L at final concentrations ranging from 0.3-0.0000018 μM (in table 2), or 0.1 μM for fulvestrant (using as positive control). At 4 hours post compound addition the cells were fixed by adding 25 μL of formalin (final concentration 5% formalin containing 0.1% triton) for 10 minutes at room temperature and then washed twice with PBS. Then, 50 μL of LI-COR blocking buffer containing 0.1% Triton was added to plate for 30 minutes at room temperature. LI-COR blocking buffer was removed and cells were incubated overnight at cold room with 50 μL anti-ER rabbit monoclonal antibody (Thermo scientific MA1-39540) diluted at 1:1000 in LI-COR blocking buffer containing 0.1% tween-20. Wells which were treated with blocking buffer but no antibody were used as background control. Wells were washed twice with PBS (0.1% tween-20) and incubated at 37° C. for 60 minutes in LI-COR (0.1% tween-20) containing goat anti-rabbit antibody Alexa 488 (1:1000) and Syto-64 a DNA dye (2 μM final concentration). Cells were then washed 3 times in PBS and scanned in ACUMEN explorer (TTP-Labtech). Integrated intensities in the green fluorescence and red fluorescence were measured to determine the levels of ERα and DNA respectively. The degradation activity with respect to estrogen receptors in this test is given by the concentration which degrades 50% of the estrogen receptor (or IC50) in nM. The % of ERα levels decrease were determined as follows: % inhibition=100*(1−(sample−fulvestrant: DMSO−fulvestrant)).

SMILES | % Degradation At 0.3 μM
COc1c(C2=C(c3ccc(CC4CN(CCCF)C4)cc3)c3ccc(C(=O)O)cc3CCC2)cccc1C(F)(F)F [Compound 4, 9-(4-((1-(3-fluoropropyl)azetidin-3-yl)methyl)phenyl)-8-(2-methoxy-3-(trifluoromethyl)phenyl)-6,7-dihydro-5H-benzo[7]annulene-3-carboxylic acid] | 83%
Cc1cccc(Cl)c1C1=C(c2ccc(CC3CN(CCCF)C3)cc2)c2ccc(C(=O)O)cc2CCC1.Cl [Compound 40, 8-(2-chloro-6-methylphenyl)-9-(4-((1-(3-fluoropropyl)azetidin-3-yl)methyl)phenyl)-6,7-dihydro-5H-benzo[7]annulene-3-carboxylic acid, hydrochloride] | 91%
COc1cccc(C)c1C1=C(c2ccc(CC3CN(CCCF)C3)cc2)c2ccc(C(=O)O)cc2CCC1.Cl [Compound 48, 9-(4-((1-(3-fluoropropyl)azetidin-3-yl)methyl)phenyl)-8-(2-methoxy-6-methylphenyl)-6,7-dihydro-5H-benzo[7]annulene-3-carboxylic acid, hydrochloride] | 92%
Cc1c(O)cccc1C1=C(c2ccc(CC3CN(CCCF)C3)cc2)c2ccc(C(=O)O)cc2CCC1.Cl [Compound 61, 9-(4-((1-(3-fluoropropyl)azetidin-3-yl)methyl)phenyl)-8-(3-hydroxy-2-methylphenyl)-6,7-dihydro-5H-benzo[7]annulene-3-carboxylic acid, hydrochloride] | 90%
Cc1cc(C2=C(c3ccc(CC4CN(CCCF)C4)cc3)c3ccc(C(=O)O)cc3CCC2)ccc1C(F)F.Cl [Compound 42, 8-(4-(difluoromethyl)-3-methylphenyl)-9-(4-((1-(3-fluoropropyl)azetidin-3-yl)methyl)phenyl)-6,7-dihydro-5H-benzo[7]annulene-3-carboxylic acid, hydrochloride] | 91%
O=C(O)c1ccc2c(c1)CCCC(c1cccc(F)c1OC(F)F)=C2c1ccc(CC2CN(CCCF)C2)cc1 [Compound 1, 8-(2-(difluoromethoxy)-3-fluorophenyl)-9-(4-((1-(3-fluoropropyl)azetidin-3-yl)methyl)phenyl)-6,7-dihydro-5H-benzo[7]annulene-3-carboxylic acid] | 85%
CC(F)(F)c1cc(F)ccc1C1=C(c2ccc(CC3CN(CCCF)C3)cc2)c2ccc(C(=O)O)cc2CCC1 [Compound 62, 8-(2-(1,1-difluoroethyl)-4-fluorophenyl)-9-(4-((1-(3-fluoropropyl)azetidin-3-yl)methyl)phenyl)-6,7-dihydro-5H-benzo[7]annulene-3-carboxylic acid] | 95%
Cc1cccc(C2=C(c3ccc(CC4CN(CCCF)C4)cc3)c3ccc(C(=O)O)cc3CCC2)c1C(F)F.Cl [Compound 54, 8-(2-(difluoromethyl)-3-methylphenyl)-9-(4-((1-(3-fluoropropyl)azetidin-3-yl)methyl)phenyl)-6,7-dihydro-5H-benzo[7]annulene-3-carboxylic acid, hydrochloride] | 90%
Cc1cccc(C(F)F)c1C1=C(c2ccc(CC3CN(CCCF)C3)cc2)c2ccc(C(=O)O)cc2CCC1 [Compound 66, 8-(2-(difluoromethyl)-6-methylphenyl)-9-(4-((1-(3-fluoropropyl)azetidin-3-yl)methyl)phenyl)-6,7-dihydro-5H-benzo[7]annulene-3-carboxylic acid] | 90%
COc1cccc(Cl)c1C1=C(c2ccc(CC3CN(CCCF)C3)cc2)c2ccc(C(=O)O)cc2CCC1 [Compound 44, 8-(2-chloro-6-methoxyphenyl)-9-(4-((1-(3-fluoropropyl)azetidin-3-yl)methyl)phenyl)-6,7-dihydro-5H-benzo[7]annulene-3-carboxylic acid] | 92%
CC1(C)CCC(C2=C(c3ncc(CC4CN(CCCF)C4)cc3F)c3ccc(C(=O)O)cc3CCC2)CC1 [Compound 10, 8-(4,4-dimethylcyclohexyl)-9-(3-fluoro-5-((1-(3-fluoropropyl)azetidin-3-yl)methyl)pyridin-2-yl)-6,7-dihydro-5H-benzo[7]annulene-3-carboxylic acid] | 83%
COc1ccc(C2=C(c3ccc(CC4CN(CCCF)C4)cc3)c3ccc(C(=O)O)cc3CCC2)c(C(F)F)c1 [Compound 24, 8-(2-(difluoromethyl)-4-methoxyphenyl)-9-(4-((1-(3-fluoropropyl)azetidin-3-yl)methyl)phenyl)-6,7-dihydro-5H-benzo[7]annulene-3-carboxylic acid] | 92%
O=C(O)c1ccc2c(c1)CCCC(c1ccc(OC(F)(F)F)cc1)=C2c1ccc(CC2CN(CCCF)C2)cc1 [Compound 27, 9-(4-((1-(3-fluoropropyl)azetidin-3-yl)methyl)phenyl)-8-(4-(trifluoromethoxy)phenyl)-6,7-dihydro-5H-benzo[7]annulene-3-carboxylic acid] | 93%
COc1ccc(C2=C(c3ccc(CC4CN(CCCF)C4)cc3)c3ccc(C(=O)O)cc3CCC2)c(C(F)(F)F)c1.Cl [Compound 25, 9-(4-((1-(3-fluoropropyl)azetidin-3-yl)methyl)phenyl)-8-(4-methoxy-2-(trifluoromethyl)phenyl)-6,7-dihydro-5H-benzo[7]annulene-3-carboxylic acid, hydrochloride] | 92%
O=C(O)c1ccc2c(c1)CCCC(c1c(F)cccc1OC(F)(F)F)=C2c1ccc(CC2CN(CCCF)C2)cc1 [Compound 43, 8-(2-fluoro-6-(trifluoromethoxy)phenyl)-9-(4-((1-(3-fluoropropyl)azetidin-3-yl)methyl)phenyl)-6,7-dihydro-5H-benzo[7]annulene-3-carboxylic acid] | 92%
Cc1ccc(C(F)(F)F)cc1C1=C(c2ccc(CC3CN(CCCF)C3)cc2)c2ccc(C(=O)O)cc2CCC1 [Compound 18, 9-(4-((1-(3-fluoropropyl)azetidin-3-yl)methyl)phenyl)-8-(2-methyl-5-(trifluoromethyl)phenyl)-6,7-dihydro-5H-benzo[7]annulene-3-carboxylic acid] | 78%
C=Cc1c(F)cccc1C1=C(c2ccc(CC3CN(CCCF)C3)cc2)c2ccc(C(=O)O)cc2CCC1 [Compound 36, 8-(3-fluoro-2-vinylphenyl)-9-(4-((1-(3-fluoropropyl)azetidin-3-yl)methyl)phenyl)-6,7-dihydro-5H-benzo[7]annulene-3-carboxylic acid] | 92%
COc1ccc(C(F)(F)F)cc1C1=C(c2ccc(CC3CN(CCCF)C3)cc2)c2ccc(C(=O)O)cc2CCC1.Cl [Compound 28, 9-(4-((1-(3-fluoropropyl)azetidin-3-yl)methyl)phenyl)-8-(2-methoxy-5-(trifluoromethyl)phenyl)-6,7-dihydro-5H-benzo[7]annulene-3-carboxylic acid, hydrochloride] | 80%
Cc1ccc(C(F)(F)F)c(C2=C(c3ccc(CC4CN(CCCF)C4)cc3)c3ccc(C(=O)O)cc3CCC2)c1.Cl [Compound 20, 9-(4-((1-(3-fluoropropyl)azetidin-3-yl)methyl)phenyl)-8-(5-methyl-2-(trifluoromethyl)phenyl)-6,7-dihydro-5H-benzo[7]annulene-3-carboxylic acid, hydrochloride] | 91%
O=C(O)c1ccc2c(c1)CCCC(c1cccc3c1CCCO3)=C2c1ccc(CC2CN(CCCF)C2)cc1 [Compound 12, 8-(chroman-5-yl)-9-(4-((1-(3-fluoropropyl)azetidin-3-yl)methyl)phenyl)-6,7-dihydro-5H-benzo[7]annulene-3-carboxylic acid] | 86%
Cc1ccc(C2=C(c3ccc(CC4CN(CCCF)C4)cc3)c3ccc(C(=O)O)cc3CCC2)c(C)c1F [Compound 57, 8-(3-fluoro-2,4-dimethylphenyl)-9-(4-((1-(3-fluoropropyl)azetidin-3-yl)methyl)phenyl)-6,7-dihydro-5H-benzo[7]annulene-3-carboxylic acid] | 92%
